# From patent US12329159B2, “Systems and methods for use of chlorine dioxide in cultivation and post-harvest applications” (Prokure Solutions, LLC, priority 2018, dated 2025)
# Tests used:
# [1] = tested on: Bipolaris/Drechslera; experiment: Spore trap testing, treated greenhouse: Bipolaris/Drechslera; type: in vivo; conditions: 1.2 mg chlorine dioxide gas per hour per 4000 cubic feet
# Description: (§1) Very low-level chlorine dioxide protection using about 3 mg chlorine dioxide gas per hour for every 4000 cubic feet (50-gram ProKure® D Extended Release Gas product (ProKure® Solutions), 2000 mg total over 4 weeks) was tested to determine the effects on reduction and prevention of fungal microorganism counts. The rate of chlorine dioxide production will vary depending on the relative humidity (RH) in the room. The above rate is for RH range of 40-60%. Each 3 mg chlorine dioxide per hour product (50-gram) unit will cover 4000 cubic feet of space. The 4000 cubic foot volume is recommended for safety reasons. This volume of space insures that the concentration of the gas remains below the OSHA regulated Permissible Exposure Limit (PEL) which is 0.1 ppmv (time weighted average (TWA) over a 8-hours per day or 40-hour work week) and the Short Term Exposure Limit (STEL) which is 0.3 ppmv (TWA over any 15-minute period) for chlorine dioxide.
# (§2) All data is based on the dose described a unless otherwise noted. The spore counts per cubic meter prior to treatment are compared to spore counts per cubic meter post treatment with the treatment time indicated. […]
# (§3) Treatment was performed using 1.2 mg chlorine dioxide gas per hour per 4000 cubic feet. […] The fungus could not be detected by visual inspection after about 30 days of treatment. […]
# [2] = tested on: total spores; experiment: Spore trap testing, treated greenhouse: Total spores; type: in vivo; conditions: 1.2 mg chlorine dioxide gas per hour per 4000 cubic feet
# Description: as §1, §2, §3
# [3] = tested on: Fusarium; experiment: Spore trap testing, treated greenhouse: Fusarium; type: in vivo; conditions: 1.2 mg chlorine dioxide gas per hour per 4000 cubic feet
# Description: as §1, §2, §3
# [4] = tested on: Alternaria; experiment: Spore trap testing, treated greenhouse: Alternaria; type: in vivo; conditions: 1.2 mg chlorine dioxide gas per hour per 4000 cubic feet
# Description: as §1, §2, §3
# [5] = tested on: Cannabis plants; experiment: Toxicity responses of Cannabis plants to applications of gaseous chlorine dioxide; type: in vivo
# From the text: Two varieties of Cannabis plants in both vegetative and flowering stages were exposed to various amounts of chlorine dioxide gas to determine if plant damage would result. Adverse effects were based on discoloration or chlorosis type damage to leaves and/or flowers. Leaves of each plant were collected prior to experiments and again 2 days post treatment for tissue analysis. Leaf samples were sent to a third-party laboratory for analysis of nutrients and total chloride (Cl^−). Tissue analysis of leaves pre- and post-treatment were compared to determine uptake of chlorine dioxide and/or its by-products. Control plants were used for visual comparison in determining plant damage. All plants were monitored for several days after application of chlorine dioxide gas. Plants were potted in soil and appeared healthy and undamaged unless otherwise noted. All plants including controls were of the same age for each growth stage. • The chlorine dioxide gas exposure was based on concentration with units of mg of chlorine dioxide per cubic foot of space.
# A first trial was performed in a space of 1550 cubic feet with four healthy plants in the space, two of which were in flower at week 5 of 8, and the other two of which had one week of vegetative stage remaining. The chlorine dioxide dose was 1.9 mg chlorine dioxide per cubic foot of space (one 25 g ProKure® G Fast Release Gas packet (ProKure® Solutions, Phoenix, AZ) and 4 liters of 500 ppm chlorine dioxide solution). Contact time was 18 hours, and the room was maintained in darkness for the duration of the contact time.
# A second trial was performed in a space of about 33400 cubic feet with 840 flowering plants at week eight of an eight-week cultivation cycle. All plants were healthy. […] The chlorine dioxide dose was 0.45 mg chlorine dioxide gas per cubic foot of space. Contact time was 18 hours, and the room was maintained in darkness for the first 12 hours, and grow lights came on for the last 6 hours of contact time, but the chlorine dioxide gas concentration monitoring was only performed for about 10 hours.
# [6] = tested on: Ascospores; experiment: Spore trap testing, treated greenhouse: Ascospores; type: in vivo; conditions: 1.2 mg chlorine dioxide gas per hour per 4000 cubic feet
# Description: as §1, §2, §3
# [7] = tested on: Penicillium/Aspergillus; experiment: Spore trap testing, treated greenhouse: Penicillium/Aspergillus; type: in vivo; conditions: 1.2 mg chlorine dioxide gas per hour per 4000 cubic feet
# Description: as §1, §2, §3
# [8] = tested on: Basidiospores; experiment: Spore trap testing, treated greenhouse: Basidiospores; type: in vivo; conditions: 1.2 mg chlorine dioxide gas per hour per 4000 cubic feet
# Description: as §1, §2, §3
# [9] = tested on: Smuts/Myxomycetes; experiment: Spore trap testing, treated greenhouse: Smuts/Myxomycetes; type: in vivo; conditions: 1.2 mg chlorine dioxide gas per hour per 4000 cubic feet
# Description: as §1, §2, §3
# [10] = tested on: Oidium; experiment: Spore trap testing, treated greenhouse: Oidium; type: in vivo; conditions: 1.2 mg chlorine dioxide gas per hour per 4000 cubic feet
# Description: as §1, §2, §3
# [11] = cited from earlier work
# [12] = tested on: Aureobasidium; experiment: Spore trap testing, treated greenhouse: Aureobasidium; type: in vivo; conditions: 1.2 mg chlorine dioxide gas per hour per 4000 cubic feet
# Description: as §1, §2, §3
# [13] = tested on: Torula; experiment: Spore trap testing, treated greenhouse: Torula; type: in vivo; conditions: 1.2 mg chlorine dioxide gas per hour per 4000 cubic feet
# Description: as §1, §2, §3
# [14] = tested on: Chaetomium; experiment: Spore trap testing, treated greenhouse: Chaetomium; type: in vivo; conditions: 1.2 mg chlorine dioxide gas per hour per 4000 cubic feet
# Description: as §1, §2, §3
smiles,measurement,setting,value
[O][Cl+][O-] [chlorine dioxide],Bipolaris/Drechslera spore Count,[1]; 7 Days Post-Treatment,0 per cubic meter
same,Bipolaris/Drechslera spore Count,[1]; 45 Days Post-Treatment,0 per cubic meter
same,Total spore Count,[2]; 7 Days Post-Treatment,320 per cubic meter
same,Total spore Count,[2]; 45 Days Post-Treatment,13 per cubic meter
same,Fusarium spore Count,[3]; 7 Days Post-Treatment,0 per cubic meter
same,Fusarium spore Count,[3]; 45 Days Post-Treatment,0 per cubic meter
same,Alternaria spore Count,[4]; 7 Days Post-Treatment,0 per cubic meter
same,Alternaria spore Count,[4]; 45 Days Post-Treatment,0 per cubic meter
same,assessment of the dose,"[5]; Trial 1, 1.9 mg chlorine dioxide per cubic foot",considered detrimental
same,plant death,"[5]; Trial 1, 1.9 mg chlorine dioxide per cubic foot, 18 hours",none of the 4 plants died
same,plant damage,"[5]; Trial 1, 1.9 mg chlorine dioxide per cubic foot, 18 hours, 24-48 hours post-treatment",all 4 plants showed damage in the form of yellowing and chlorosis
same,plant appearance,"[5]; Trial 1, 1.9 mg chlorine dioxide per cubic foot, immediately following the 18 hours of contact time",the plants still appeared healthy
same,plant damage,"[5]; Trial 2, 0.45 mg chlorine dioxide per cubic foot, 18 hours, 840 healthy flowering plants",All plants remained healthy and undamaged
same,Ascospores Count,[6]; 7 Days Post-Treatment,27 per cubic meter
same,Ascospores Count,[6]; 45 Days Post-Treatment,0 per cubic meter
same,Penicillium/Aspergillus spore Count,[7]; 7 Days Post-Treatment,0 per cubic meter
same,Penicillium/Aspergillus spore Count,[7]; 45 Days Post-Treatment,0 per cubic meter
same,Basidiospores Count,[8]; 7 Days Post-Treatment,53 per cubic meter
same,Basidiospores Count,[8]; 45 Days Post-Treatment,0 per cubic meter
same,Smuts/Myxomycetes spore Count,[9]; 7 Days Post-Treatment,173 per cubic meter
same,Smuts/Myxomycetes spore Count,[9]; 45 Days Post-Treatment,13 per cubic meter
same,Oidium spore Count,[10]; 7 Days Post-Treatment,13 per cubic meter
same,Oidium spore Count,[10]; 45 Days Post-Treatment,0 per cubic meter
same,Short Term Exposure Limit (STEL),[11]; TWA over any 15-minute period,0.3 ppmv
same,OSHA regulated Permissible Exposure Limit (PEL),[11]; time weighted average over 8 hours per day or 40-hour work week,0.1 ppmv
same,Aureobasidium spore Count,[12]; 7 Days Post-Treatment,0 per cubic meter
same,Aureobasidium spore Count,[12]; 45 Days Post-Treatment,0 per cubic meter
same,Torula spore Count,[13]; 7 Days Post-Treatment,0 per cubic meter
same,Torula spore Count,[13]; 45 Days Post-Treatment,0 per cubic meter
same,Chaetomium spore Count,[14]; 7 Days Post-Treatment,0 per cubic meter
same,Chaetomium spore Count,[14]; 45 Days Post-Treatment,0 per cubic meter
